Reference: publication PMC7932537, “Quantitative profiling of protease specificity” (PLoS Computational Biology, 2021)

Columns and labels:
MMP-9 = experiment: Substrate phage display with NGS: relative probability (RP) of P3-P1' tetramer clusters; assay type: biochemical, human; settings: for normalized RP - MMP9: normalized RP of matching tetramer; for corresponding MMP9 relative probability (RP): MMP2 tetramers from unique substrates, RP of same tetramer for MMP9
MMP-2 = experiment: as above; assay type: biochemical, human; settings: for relative probability (RP) of matching tetramer: P3-P1' tetramer matching the MS detected MMP2 cleavage sequence, RP_above_4.5; for normalized RP - MMP2: normalized RP of matching tetramer; for MMP2 relative probability (RP): MMP2 tetramers from unique substrates, unrounded values; for avg_RP: MMP2 - no binning; for relative_probability: tetramer clusters unique to the MMP-2 selectome, MMP-2 RP
[1] = RP of matching tetramer, unique part of MMP2 selectome
[2] = RP of matching tetramer, unique part of MMP2 selectome, RP above KL threshold
[3] = RP of the P3-P1' tetramer, MMP9 substrate phage display/NGS, tetramers of physiologic MEROPS substrates common to MMP2 and MMP9
[4] = RP of the P3-P1' tetramer, MMP2 substrate phage display/NGS, tetramers of physiologic MEROPS substrates common to MMP2 and MMP9
[5] = RP according to MMP2, P3-P1' tetramer of unique physiologic MMP2 substrates from MEROPS
[6] = MMP9, RP of the P3-P1' tetramer contained in the hexamer substrate (substrate phage display, NGS)
[7] = RP of the P3-P1' tetramer cluster contained in the hexamer, 200 nM MMP-2, 2 h, 37°C, two rounds of selection
[8] = MMP9, RP of matching P3-P1' tetramer, common set of MMP2-9 selectome
[9] = MMP2, RP of matching P3-P1' tetramer, common set of MMP2-9 selectome, RP above KL threshold
[10] = average relative probability (RP) of the P3-P1' tetramer, redundant tetramers have been averaged out
[11] = tetramer projected onto MMP-9 cleavage sites determined by Prudova et al. (2010)
[12] = RP according to MMP9, P3-P1' tetramer of unique physiologic MMP9 substrates from MEROPS

GSAL was tested, and the “relative probability (RP) (acc.to MMP9)” value (MMP-9; [1]) was 2.8, the “normalized RP - MMP9” value (MMP-9; unique part of MMP2 selectome) was 0.05346 and the “relative probability (RP) of matching tetramer” value (MMP-2) was 9.27. For the same substance, the “relative probability (RP) (acc.to MMP2)” value (MMP-2; [2]) was 9.27 and the “normalized RP - MMP2” value (MMP-2; unique part of MMP2 selectome) was 0.2538.

For GSSY, the “relative probability (RP) (acc.to MMP9)” value (MMP-9; [3]) was 0.37 and the “relative probability (RP) (acc.to MMP2)” value (MMP-2; [4]) was 0.73.

HARL was tested, and the “corresponding MMP9 relative probability (RP)” value (MMP-9) was 0.3259, the “MMP2 relative probability (RP)” value (MMP-2) was 17.6482 and the “Relative probability (RP) rank” value (MMP-2; [5]) was 2341. The “relative probability (RP)” value (MMP-2; [5]) was 17.65.

HFFK was tested, and the “relative probability (RP) (acc.to MMP9)” value (MMP-9; [3]) was 0.27 and the “relative probability (RP) (acc.to MMP2)” value (MMP-2; [4]) was 0.14.

HPVSMV was tested, and the “relative probability (RP)” value (MMP-9; [6]) was 41.2029 and the “relative probability (RP)” value (MMP-2; [7]) was 30.0644.

For HQKL, the “relative probability (RP) (acc.to MMP9)” value (MMP-9; [3]) was 0.06 and the “relative probability (RP) (acc.to MMP2)” value (MMP-2; [4]) was 2.29.

With IAFL the “relative probability (RP) (acc.to MMP9)” value (MMP-9; [8]) was 10.97, the “relative probability (RP) (acc.to MMP2)” value (MMP-2; [9]) was 22.55 and the “relative probability (RP) of matching tetramer” value (MMP-2) was 22.55.

In the case of IANL, the “relative probability (RP) (acc.to MMP9)” value (MMP-9; [8]) is reported as 21.07, the “relative probability (RP)” value (MMP-9; MMP9, RP of the P3-P1' tetramer matching the MS detected cleavage, RP above 4.7, substrate phage display with NGS) is reported as 21.07 and the “relative probability (RP) (acc.to MMP9)” value (MMP-9; RP of matching tetramer, common MMP2-9 selectome, RP above KL threshold) is reported as 21.07. For the same substance, the avg_RP (MMP-2; [10]) was 33.8805, the “relative probability (RP) (acc.to MMP2)” value (MMP-2; [9]) was 33.88 and the “relative probability (RP) of matching tetramer” value (MMP-2) was 33.88. The “relative probability (RP) (acc.to MMP2)” value (MMP-2; RP of matching tetramer, common MMP2-9 selectome) was 33.88.

For IDNL, the “relative probability (RP) (acc.to MMP9)” value (MMP-9; [1]) was 0.5, the “normalized RP - MMP9” value (MMP-9; unique part of MMP2 selectome) was 0.009546 and the “relative probability (RP) of matching tetramer” value (MMP-2) was 4.88. The “relative probability (RP) (acc.to MMP2)” value (MMP-2; [2]) was 4.88 and the “normalized RP - MMP2” value (MMP-2; unique part of MMP2 selectome) was 0.1336.

IGGL [P3-P1' tetramer cluster] was tested, and the “relative probability (RP) (acc.to MMP9)” value (MMP-9; [1]) was 4.4, the “normalized RP - MMP9” value (MMP-9; unique part of MMP2 selectome) was 0.084 and the “relative probability (RP)” value (MMP-9; [11]) was 4.4. The “relative probability (RP) of matching tetramer” value (MMP-2) was 26.48, the “relative probability (RP) (acc.to MMP2)” value (MMP-2; [2]) was 26.48 and the “normalized RP - MMP2” value (MMP-2; unique part of MMP2 selectome) was 0.7251.

In the case of IGLM, the “corresponding MMP9 relative probability (RP)” value (MMP-9) is reported as 2.913, the “Relative probability (RP) rank” value (MMP-9; [12]) is reported as 7888 and the “relative probability (RP)” value (MMP-9; [12]) is reported as 2.91. For the same substance, the “relative probability (RP) (acc.to MMP9)” value (MMP-9; [3]) was 2.91, the “MMP2 relative probability (RP)” value (MMP-2) was 19.5116 and the “Relative probability (RP) rank” value (MMP-2; [5]) was 1895. For the same substance, the “relative probability (RP)” value (MMP-2; [5]) was 19.51 and the “relative probability (RP) (acc.to MMP2)” value (MMP-2; [4]) was 19.51.

In the case of IGNM, the “relative probability (RP) (acc.to MMP9)” value (MMP-9; [8]) is reported as 9.58, the “relative probability (RP) (acc.to MMP2)” value (MMP-2; [9]) is reported as 29.21 and the “relative probability (RP) of matching tetramer” value (MMP-2) is reported as 29.21.

IGRF was tested, and the “corresponding MMP9 relative probability (RP)” value (MMP-9) was 0.4689, the “MMP2 relative probability (RP)” value (MMP-2) was 13.8957 and the “Relative probability (RP) rank” value (MMP-2; [5]) was 3460. The “relative probability (RP)” value (MMP-2; [5]) was 13.9.

For IGTY, the “relative probability (RP) (acc.to MMP9)” value (MMP-9; [1]) was 0.06, the “normalized RP - MMP9” value (MMP-9; unique part of MMP2 selectome) was 0.001145 and the “relative probability (RP) of matching tetramer” value (MMP-2) was 5.18. The “relative probability (RP) (acc.to MMP2)” value (MMP-2; [2]) was 5.18 and the “normalized RP - MMP2” value (MMP-2; unique part of MMP2 selectome) was 0.1418.

For IHSL, the “relative probability (RP) (acc.to MMP9)” value (MMP-9; [8]) was 4.86, the “relative probability (RP) (acc.to MMP2)” value (MMP-2; [9]) was 6.87 and the “relative probability (RP) of matching tetramer” value (MMP-2) was 6.87.

INPQGL was tested, and the “relative probability (RP)” value (MMP-9; [6]) was 47.8621 and the “relative probability (RP)” value (MMP-2; [7]) was 33.5241.

For IPLASL, the “relative probability (RP)” value (MMP-9; [6]) was 34.6637 and the “relative probability (RP)” value (MMP-2; [7]) was 31.1996.

For IQSI, the “relative probability (RP) (acc.to MMP9)” value (MMP-9; [1]) was 0.41, the “normalized RP - MMP9” value (MMP-9; unique part of MMP2 selectome) was 0.007827 and the “relative probability (RP) of matching tetramer” value (MMP-2) was 15.56. For the same substance, the “relative probability (RP) (acc.to MMP2)” value (MMP-2; [2]) was 15.56 and the “normalized RP - MMP2” value (MMP-2; unique part of MMP2 selectome) was 0.4261.

IRPKHF was tested, and the “relative probability (RP)” value (MMP-9; [6]) was 30.1694 and the “relative probability (RP)” value (MMP-2; [7]) was 19.1404.

In the case of ITGL, the “corresponding MMP9 relative probability (RP)” value (MMP-9) is reported as 0.3587, the “MMP2 relative probability (RP)” value (MMP-2) is reported as 4.832 and the “Relative probability (RP) rank” value (MMP-2; [5]) is reported as 7648. The “relative probability (RP)” value (MMP-2; [5]) was 4.83.

For KPVNMT, the “relative probability (RP)” value (MMP-9; [6]) was 44.4072 and the “relative probability (RP)” value (MMP-2; [7]) was 30.0312.

With KSEL the “corresponding MMP9 relative probability (RP)” value (MMP-9) was 0.2037, the “MMP2 relative probability (RP)” value (MMP-2) was 10.4091 and the “Relative probability (RP) rank” value (MMP-2; [5]) was 4754. For the same substance, the “relative probability (RP)” value (MMP-2; [5]) was 10.41.

With KSPLRQ the “relative probability (RP)” value (MMP-9; [6]) was 29.0862 and the “relative probability (RP)” value (MMP-2; [7]) was 11.8624.

KSPQAM was tested, and the “relative probability (RP)” value (MMP-9; [6]) was 47.1106 and the “relative probability (RP)” value (MMP-2; [7]) was 28.5429.

KSPQSY was tested, and the “relative probability (RP)” value (MMP-9; [6]) was 42.416 and the “relative probability (RP)” value (MMP-2; [7]) was 26.1515.

With KSPSRL the “relative probability (RP)” value (MMP-9; [6]) was 39.8157 and the “relative probability (RP)” value (MMP-2; [7]) was 31.7732.

KSPVGV was tested, and the “relative probability (RP)” value (MMP-9; [6]) was 34.3287 and the “relative probability (RP)” value (MMP-2; [7]) was 27.6556.

For LAEL [P3-P1' tetramer cluster], the “relative probability (RP)” value (MMP-9; [11]) was 0.44 and the avg_RP (MMP-2; average relative probability of the tetramer, redundant tetramers averaged out) was 27.078.

For LAGL [P3-P1' tetramer cluster], the “corresponding MMP9 relative probability (RP)” value (MMP-9) was 1.413, the “MMP2 relative probability (RP)” value (MMP-2) was 32.2383 and the “Relative probability (RP) rank” value (MMP-2; [5]) was 174. The “relative probability (RP)” value (MMP-2; [5]) was 32.24 and the relative_probability (MMP-2) was 32.24.

For LAHA, the “corresponding MMP9 relative probability (RP)” value (MMP-9) was 0.5961, the “MMP2 relative probability (RP)” value (MMP-2) was 10.8276 and the “Relative probability (RP) rank” value (MMP-2; [5]) was 4607. For the same substance, the “relative probability (RP)” value (MMP-2; [5]) was 10.83 and the “relative probability (RP)” value (MMP-2; tetramer annotation of MMP-2 cleavage sites in physiologic substrates from MEROPS) was 10.83.

LANM was tested, and the “relative probability (RP) (acc.to MMP9)” value (MMP-9; [3]) was 5.47, the avg_RP (MMP-2; [10]) was 31.4114 and the “relative probability (RP) (acc.to MMP2)” value (MMP-2; [4]) was 31.41.

For LAPL [P3-P1' tetramer cluster], the “corresponding MMP9 relative probability (RP)” value (MMP-9) was 4.642, the “MMP2 relative probability (RP)” value (MMP-2) was 31.5631 and the “Relative probability (RP) rank” value (MMP-2; [5]) was 227. The “relative probability (RP)” value (MMP-2; [5]) was 31.56 and the relative_probability (MMP-2) was 31.56.
